≈ marks a conversion by molar mass, not a printed value.
Legend:
[1] = system: IL-1β; experiment: Inhibition of IL-1β secretion from human PBMC stimulated with LPS; assay type: cell-based; settings: 1 μg/ml LPS, 24 h; for IC50: read-out: IC50 IL-1β release
Method: (§1) 5.2 Inhibition of IL-β, IL-6, or TNF-α Secretion from Human Peripheral Blood […] (PBMC) Stimulated with LPS PBMC (5×10^5 cells) suspended in RPMI 1640 culture medium supplemented with 1% penicillin and 1% streptomycin are pre-incubated for 30 min. at 37° C. with the test compound, reference compound, or culture medium (control). Thereafter, 1 μg/ml LPS is added to induce the cytokine secretion and the mixture is incubated for 24 h at 37° C. For basal control measurements, LPS is omitted from the incubation medium. Following incubation, the samples are centrifuged at 250×g for 5 min. at 4° C. and the supernatants are collected. The amount of secreted IL-1β, 1L-6, or TNF-α present in the supernatant is quantified using an EIA detection kit (R&D systems). The photometric measurements are made with a microplate reader (Ultra, Tecan). The results are expressed as a percent inhibition of the control secretion induced by LPS. The standard inhibitory reference compounds for IL-1β, IL-6 or TNF-α are cycloheximide and dexamethasone, respectively, which are tested in each experiment at several concentrations to obtain an inhibition curve from which their IC50 values are calculated (Schindler, R., et al., (1990). “Correlations and interactions in the production of interleukin-6 (IL-6), IL-1, and tumor necrosis factor (TNF) in human blood mononuclear cells: IL-6 suppresses IL-1 and TNF”, Blood, 75:40. These procedures were used to determine the inhibition (and selectivity) of cytokine release by representative compounds […] shown in Table 2. Thus, the invention provides antibiotics that are generically called borinic acid complexes, most preferably derived from disubstituted borinic acids.

[2] = system: TNF-α; experiment: Inhibition of TNF-α secretion from human PBMC stimulated with LPS; assay type: cell-based; settings: 1 μg/ml LPS, 24 h; for IC50: read-out: IC50 TNF-α release
Method: as §1

[3] = system: S. epidermidis ATCC 12228; experiment: MIC determination (NCCLS broth microdilution), S. epidermidis; assay type: cell-based; settings: lowest concentration with >=80% inhibition, 24 h at 34° C.
Method: (§2) The compounds of this invention are evaluated for their antibacterial activity as per the guidelines and procedures prescribed by the National Committee for Clinical Laboratory Standards (NCCLS) (cf., NCCLS Document M7-A3, 1993-Antimicrobial Susceptibility Testing). 5.1.1 Protocol for Determining Minimum Inhibitory Concentration (MIC) A useful protocol for MIC determination is as follows: • 1. Approximately 2.5 mg of the compounds to be tested was weighed into cryovials. • 2. 5 mg/ml stock solutions were made by adding DMSO to the samples accordingly. • 3. 256 μg/ml working solutions were made by using the 5 mg/ml stock solutions and adding sterile distilled water accordingly. • 4. A Beckman 2000 Automated Workstation was programmed to load 96-well plates with broth and compounds as follows: • 100 μl of the appropriate broth was added to columns 1-11. • 200 μl of the appropriate broth was added to column 12. • 100 μl of compounds at the 256 μg/ml working solution were added to column 1 (one compound per row). • Two-fold serial dilutions were done from columns 1-10. • Column 11 served as the growth control. • 5. The ten-organism panel was plated from stock vials stored at −80° C. and incubated for 24 hours at 34° C. The organisms were then sub-cultured and incubated for 24 hours at 34° C. • The inoculums were first prepared in sterile distilled water with a target of 0.09-0.11 absorbance at 620 nm wavelength. • A 1/100 dilution was made into the appropriate broth. • 100 μl of broth with organism was added to columns 1-11. • Column 12 served as the blank control. • 6. The completed 96 well plates were incubated for 24 hours at 34° C. The 96-well plates were then read using a Beckman Automated Plate Reader at 650 nm wavelength. The MIC was determined through calculations involving the growth control (column 11) and blank control (column 12). 5.1.2 MIC Calculation The absorbance readings from the Biomek Automated Plate Reader are used to determine the percent inhibition for each test well. The formula used is as follows: [formula] • ABSTest: Absorbance of the test well. • ABSblank: Absorbance of the blank well in the same row as the test well (column 12). • ABSgrowth: Mean absorbance of the growth control wells (column 11). […] These procedures were used to obtain the representative microbiological data for the compounds 10 to 19 shown in Table 1 as MIC (Minimum Inhibitory Concentration) with the values expressed as micrograms per milliliter (mcg/ml).

[4] = system: S. aureus ATCC 29213; experiment: MIC determination (NCCLS broth microdilution), S. aureus; assay type: cell-based; settings: lowest concentration with >=80% inhibition, 24 h at 34° C.
Method: as §2

[5] = system: P. acnes ATCC 6919; experiment: MIC determination (NCCLS broth microdilution), P. acnes; assay type: cell-based, Propionibacterium acnes; settings: lowest concentration with >=80% inhibition, 24 h at 34° C.
Method: as §2

[6] = system: IL-8; experiment: Inhibition of IL-8 pro-inflammatory cytokine release; assay type: cell-based
From the text: The selective inhibition of the release of pro-inflammatory cytokines is shown in Table 2 with representative compounds 10, 11, and 30-35.

[7] = system: IL-6; experiment: Inhibition of IL-6 secretion from human PBMC stimulated with LPS; assay type: cell-based; settings: 1 μg/ml LPS, 24 h; for IC50: read-out: IC50 IL-6 release
Method: as §1

| Structure (SMILES) | Inhibition (%) at 25 μM IL-1β release [1] | Inhibition (%) at 25 μM TNF-α release [2] | MIC S. epidermidis ATCC 12228 [3] | MIC S. aureus ATCC 29213 [4] | MIC P. acnes ATCC 6919 [5] | further results |
| --- | --- | --- | --- | --- | --- | --- |
| Cc1ccc(B(OC(=O)c2ncccc2OCCN2CCOCC2)c2ccc(C)c(Cl)c2)cc1Cl [Compound 32, Bis(3-chloro-4-methylphenyl)borinic acid 3-[(2-Morpholinoethyl)oxy]picolinate ester] | 34% | 101% |  |  |  |  |
| CCOC(=O)c1cccnc1C(=O)OB(c1ccc(C)c(Cl)c1)c1ccc(C)c(Cl)c1 [Compound 30, Bis(3-chloro-4-methylphenyl)borinic Acid 3-(Ethyloxycarbonyl)picolinate Ester] | 76% | 101% |  |  |  |  |
| COc1ccc(Cl)cc1B(OC(=O)c1ncccc1O)c1cccc(Cl)c1 [Compound 15, (2-Methoxy-5-chlorophenyl)(3-chlorophenyl)borinic acid 3-Hydroxypicolinate ester] |  |  | 4 µg/mL (≈ 9.95 µM) | 4 µg/mL (≈ 9.95 µM) | 3 µg/mL (≈ 7.46 µM) |  |
| Cc1ccc(B(CCc2ccccc2)OC(=O)c2ncccc2O)cc1Cl [Compound 12, (3-chloro-4-methylphenyl)(phenethyl)borinic acid 3-Hydroxypicolinate ester] |  |  | 1 µg/mL (≈ 2.63 µM) | 0.5 µg/mL (≈ 1.32 µM) | 3 µg/mL (≈ 7.9 µM) |  |
| Cc1ccc(B(OC(=O)c2ncccc2C(=O)O)c2ccc(C)cc2Cl)c(Cl)c1 [Compound 14, Bis(2-Chloro-4-methylphenyl)borinic acid 3-carboxypicolinate ester] |  |  | 4 µg/mL (≈ 9.34 µM) | 0.125 µg/mL (≈ 0.292 µM) | 3 µg/mL (≈ 7.01 µM) |  |
| Cc1cc(Cl)ccc1B(OC(=O)c1ncccc1O)c1ccc(Cl)cc1C [Compound 11, Bis(2-methyl-4-chlorophenyl)borinic acid 3-Hydroxypicolinate ester] | (103%) | (101%) | 0.25 µg/mL (≈ 0.625 µM) | 1 µg/mL (≈ 2.5 µM) | 0.3 µg/mL (≈ 0.75 µM) | IC50 [1]: 15 µM; Inhibition (%) at 25 μM IL-8 release [6]: (122%); IC50 [2]: 14.9 µM; IC50 [7]: 2.8 µM; Inhibition (%) at 25 μM IL-6 release [7]: (102%) |
| O=C(OB(c1ccc(Cl)cc1F)c1c(Cl)ccc(Br)c1F)c1ncccc1O [Compound 13, (3-Bromo-6-chloro-2-fluorophenyl)(2-fluoro-4-chlorophenyl)borinic acid 3-Hydroxypicolinate ester] |  |  | 1 µg/mL (≈ 2.05 µM) | 2 µg/mL (≈ 4.11 µM) | 3 µg/mL (≈ 6.16 µM) |  |
| Cc1ccc(B(OC(=O)c2ncccc2O)c2ccc(C)c(Cl)c2)cc1Cl [Compound 10, Bis(3-chloro-4-methylphenyl)borinic acid 3-hydroxypicolinate ester] | (99%) | (100%) | 1 µg/mL (≈ 2.5 µM) | 2 µg/mL (≈ 5 µM) | 0.3 µg/mL (≈ 0.75 µM) | IC50 [1]: 10.8 µM; Inhibition (%) at 25 μM IL-8 release [6]: (122%); IC50 [2]: 8.6 µM; IC50 [7]: 3.6 µM; Inhibition (%) at 25 μM IL-6 release [7]: (80%) |
| CC(=O)Nc1ccc(O)c(C(=O)OB(c2cccc(Cl)c2)c2cccc(Cl)c2)n1 [Compound 16, Bis(3-chlorophenyl)borinic acid 6-Acetylamino-3-hydroxypicolinate ester] |  |  | 8 µg/mL (≈ 18.6 µM) | 0.5 µg/mL (≈ 1.17 µM) | 10 µg/mL (≈ 23.3 µM) |  |
| O=C(OB(c1ccc(Cl)cc1F)c1c(Cl)ccc(Br)c1F)c1ncccc1O [Compound 34, (3-Bromo-6-chloro-2-fluorophenyl)(4-chloro-2-fluorophenyl)borinic acid 3-hydroxypicolinate ester] | 100% | 101% |  |  |  | Inhibition (%) at 25 μM IL-6 release [7]: 108% |
| Cc1ccc(B(OC(=O)c2ccc(C(=O)O)cn2)c2ccc(C)c(Cl)c2)cc1Cl [Compound 31, Bis(3-chloro-4-methylphenyl)borinic acid 5-Carboxypicolinate ester] | 80% | 101% |  |  |  |  |
| Cc1ccc(B(OC(=O)c2ncccc2O)c2ccc(O)cc2)cc1Cl [Compound 33, (3-chloro-4-methylphenyl)(4-hydroxyphenyl)borinic acid 3-hydroxypicolinate ester] | 60% | 48% |  |  |  |  |
| CC[C@H]1OC(=O)[C@H](C)[C@@H](O[C@H]2C[C@@](C)(OC)[C@@H](O)[C@H](C)O2)[C@H](C)[C@@H](O[C@@H]2O[C@H](C)C[C@H](N(C)C)[C@H]2O)[C@](C)(O)C[C@@H](C)C(=O)[C@H](C)[C@@H](O)[C@]1(C)O [erythromycin, reference compound] |  |  |  |  |  | MIC ([3]; Staphylococcus epidermidis, ATCC12228): 0.5 µg/mL (≈ 0.681 µM); MIC ([4]; Staphylococcus aureus, ATCC29213): 0.5 µg/mL (≈ 0.681 µM); MIC ([5]; Cutibacterium acnes, ATCC6919): 1 to 2 µg/mL (≈ 1.36 to 2.73 µM) |

Source: patent publication US7652000B2, “Boron-containing compounds and methods of use” (Anacor Pharmaceuticals, Inc., priority 2004, dated 2010)
